Source: patent US10323000B2, “Indole derivatives and their use in neurodegenerative diseases” (priority 2014, dated 2019)
Where two headings read alike, the source gives them in different places.

Key:
human P2X7 receptor = human P2X7 receptor (Homo sapiens (Human), UniProt Q99572); experiment: Pore permeation assay (YO PRO dye uptake); type: cell-based
[1] = biological target: P2X7 (IL-1β release from THP-1 cells) (Homo sapiens (Human), UniProt Q99572); experiment: IL-1β release assay; type: cell-based
Sequence of P2X7 (IL-1β release from THP-1 cells) (Q99572 whole entry): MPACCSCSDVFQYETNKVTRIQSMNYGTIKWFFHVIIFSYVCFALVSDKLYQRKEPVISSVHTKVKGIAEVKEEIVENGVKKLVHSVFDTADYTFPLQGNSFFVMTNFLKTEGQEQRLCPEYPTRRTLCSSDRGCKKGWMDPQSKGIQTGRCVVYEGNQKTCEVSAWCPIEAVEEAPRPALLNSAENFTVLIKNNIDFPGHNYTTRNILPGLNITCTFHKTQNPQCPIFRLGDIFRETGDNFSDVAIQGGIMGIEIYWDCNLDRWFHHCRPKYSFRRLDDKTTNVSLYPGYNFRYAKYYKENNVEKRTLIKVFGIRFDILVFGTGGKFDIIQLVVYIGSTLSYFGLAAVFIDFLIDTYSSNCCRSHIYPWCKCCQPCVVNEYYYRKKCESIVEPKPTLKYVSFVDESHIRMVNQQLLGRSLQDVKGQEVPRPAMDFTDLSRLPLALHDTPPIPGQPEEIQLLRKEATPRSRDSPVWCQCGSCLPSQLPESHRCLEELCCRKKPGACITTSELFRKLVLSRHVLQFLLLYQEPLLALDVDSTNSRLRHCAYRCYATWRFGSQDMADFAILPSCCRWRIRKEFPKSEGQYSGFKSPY
Summary of the method: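 THP-1 cells were differentiated with PMA 0.5 μM and primed 4 h with LPS 10 ng/ml. They were then pre-incubated 20 min with compound at 37° C and stimulated 30 min with BzATP 0.8 mM. Mature IL-1β released into the supernatant was quantified by sandwich ELISA.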

[2] = HEK293 transfected with human P2X7, BzATP 10 uM, YO PRO dye uptake, read-out: hP2X7 IC50
[3] = THP-1 cells, LPS primed, 0.8 mM BzATP, mature IL-1β by sandwich ELISA, read-out: hTHP-1/IL-ib IC50

Sequence of human P2X7 receptor (Q99572 whole entry): as above

SMILES | IC50 (human P2X7 receptor) | IC50 [1] | IC50 (human P2X7 receptor; [2]) | IC50 [1, 3]
O=C(NCC1(O)CCCC(F)(F)C1)c1cn(CCN2CCCC2=O)c2cccc(Cl)c12 (centres unmarked) [Compound 188, 4-chloro-N-((3,3-difluoro-1-hydroxycyclohexyl)methyl)-1-(2-(2-oxopyrrolidin-1-yl)ethyl)-1H-indole-3-carboxamide] | 10 to 100 nM | 10 to 100 nM |  | 
O=C(NCC1CCC(C(F)(F)F)CC1)c1cn(C2COC2)c2cccc(Cl)c12 (centres unmarked) [Compound 53, 4-Chloro-1-oxetan-3-yl-1H-indole-3-carboxylic acid (4-trifluoromethyl-cyclohexylmethyl)-amide] | 10 to 100 nM | 101 to 500 nM |  | 
O=C(NCC1CCC(F)(F)CC1)c1cn(CC(=O)N2CCC2)c2cccc(Cl)c12 [Compound 163] |  | 10 to 100 nM | < 10 nM | 
O=C(NCC1(O)CCCC(C(F)(F)F)C1)c1cn(C2CCOC2)c2cccc(Cl)c12 (centres unmarked) [Compound 100, 4-chloro-N-((1-hydroxy-3-(trifluoromethyl)cyclohexyl)methyl)-1-(tetrahydrofuran-3-yl)-1H-indole-3-carboxamide] |  |  | > 1000 nM | > 1000 nM
O=C(NC[C@]1(O)CCCC(F)(F)C1)c1cn(CCN2CCCC2=O)c2cccc(Cl)c12 [Compound 187, (S)-4-chloro-N-((3,3-difluoro-1-hydroxycyclohexyl)methyl)-1-(2-(2-oxopyrrolidin-1-yl)ethyl)-1H-indole-3-carboxamide] | 10 to 100 nM | 101 to 500 nM |  | 
O=C(NCC1CCC(F)(F)CC1)c1cn(CC(=O)N2CCCC2)c2cccc(Cl)c12 [Compound 185, 4-Chloro-1-(2-oxo-2-pyrrolidin-1-yl-ethyl)-1H-indole-3-carboxylic acid (4,4-difluoro-cyclohexylmethyl)-amide] | 10 to 100 nM | 10 to 100 nM |  | 
CC(NC(=O)c1cn(C2COC2)c2cccc(Cl)c12)[C@]12C[C@H]3C[C@H](C[C@H](C3)C1)C2 (some centres unmarked) [Compound 62, 4-Chloro-1-oxetan-3-yl-1H-indole-3-carboxylic acid (1-adamantan-1-yl-ethyl)-amide] | 10 to 100 nM | 10 to 100 nM |  | 
CN1CCOC(Cn2cc(C(=O)NCC3CCC(F)(F)CC3)c3c(Cl)cccc32)C1 (centres unmarked) [Compound 183, 4-chloro-N-((4,4-difluorocyclohexyl)methyl)-1-((4-methylmorpholin-2-yl)methyl)-1H-indole-3-carboxamide] | 10 to 100 nM | 10 to 100 nM |  | 
O=C(NCC1(O)CCCC(F)(F)C1)c1cn(CC2CCN2)c2cccc(Cl)c12 (centres unmarked) [Compound 124, 1-(azetidin-2-ylmethyl)-4-chloro-N-((3,3-difluoro-1-hydroxycyclohexyl)methyl)-1H-indole-3-carboxamide] | 10 to 100 nM | 10 to 100 nM |  | 
O=C(NCC1CCC(F)(F)CC1)c1cn(C2COC2)c2cccc(Cl)c12 [Compound 94, 4-chloro-N-((4,4-difluorocyclohexyl)methyl)-1-(oxetan-3-yl)-1H-indole-3-carboxamide] | 10 to 100 nM | 10 to 100 nM |  | 
O=C(NCC1CCCC(F)(F)C1)c1cn(CC2CCCN2)c2cccc(Cl)c12 (centres unmarked) [Compound 156, 4-chloro-N-((3,3-difluorocyclohexyl)methyl)-1-(pyrrolidin-2-ylmethyl)-1H-indole-3-carboxamide] | 10 to 100 nM |  |  | < 10 nM
COCCn1cc(C(=O)NCC2(O)CCCCC2)c2c(Cl)cccc21 [Compound 19, 4-Chloro-1-(2-methoxy-ethyl)-1H-indole-3-carboxylic acid (1-hydroxy-cyclohexyl methyl)-amide] | 10 to 100 nM | 101 to 500 nM |  | 
O=C(NCC1CCC(F)(F)CC1)c1cn(CC2CCNC2)c2cccc(Cl)c12 (centres unmarked) [Compound 160] | 101 to 500 nM | 101 to 500 nM |  | 
CC(C(=O)N(C)C)n1cc(C(=O)NCC2CCC(F)(F)CC2)c2c(Cl)cccc21 (centres unmarked) [Compound 200, 4-chloro-N-((4,4-difluorocyclohexyl)methyl)-1-(1-(dimethylamino)-1-oxopropan-2-yl)-1H-indole-3-carboxamide] |  | 10 to 100 nM | < 10 nM | 
O=C(NC[C@@]1(O)CCCC(F)(F)C1)c1cn(CCN2CCCC2=O)c2cccc(Cl)c12 [Compound 186, (R)-4-chloro-N-((3,3-difluoro-1-hydroxycyclohexyl)methyl)-1-(2-(2-oxopyrrolidin-1-yl)ethyl)-1H-indole-3-carboxamide] |  |  | > 1000 nM | > 1000 nM
O=C(NCC1(O)CCC(F)(F)CC1)c1cn(CC2CCCO2)c2cccc(Cl)c12 (centres unmarked) [Compound 142, 4-chloro-N-((4,4-difluoro-1-hydroxycyclohexyl)methyl)-1-((tetrahydrofuran-2-yl)methyl)-1H-indole-3-carboxamide] | 10 to 100 nM | 101 to 500 nM |  | 
COCCn1cc(C(=O)NCC2(O)CCC(F)(F)CC2)c2c(Cl)cccc21 [Compound 40, 4-chloro-N-((4,4-difluoro-1-hydroxycyclohexyl)methyl)-1-(2-methoxyethyl)-1H-indole-3-carboxamide] | 10 to 100 nM | 10 to 100 nM |  | 
O=C(NCC1(O)CCCCC1)c1cn(C2COC2)c2cccc(Cl)c12 [Compound 58, 4-Chloro-1-oxetan-3-yl-1H-indole-3-carboxylic acid (1-hydroxy-cyclohexylmethyl)-amide] | 10 to 100 nM | 101 to 500 nM |  | 
O=C(NCC1CC(C(F)(F)F)CC(F)(F)C1)c1cn(CC2CCCO2)c2cccc(Cl)c12 (centres unmarked) [Compound 141, 4-chloro-N-((3,3-difluoro-5-(trifluoromethyl)cyclo-hexyl)methyl)-1-((tetrahydrofuran-2-yl)methyl)-1H-indole-3-carboxamide] | 10 to 100 nM | 10 to 100 nM |  | 
COCCn1cc(C(=O)NC[C@]2(O)CCCC(F)(F)C2)c2c(Cl)cccc21 [Compound 20, (S)-4-chloro-N-((3,3-difluoro-1-hydroxycyclohexyl)methyl)-1-(2-methoxyethyl)-1H-indole-3-carboxamide] | 10 to 100 nM | 101 to 500 nM |  | 
COCCn1cc(C(=O)NCC2(OC)CCC(F)(F)CC2)c2c(Cl)cccc21 [Compound 17, 4-Chloro-1-(2-methoxy-ethyl)-1H-indole-3-carboxylic acid (4,4-difluoro-1-methoxy-cyclohexylmethyl)-amide] | 10 to 100 nM | 101 to 500 nM |  | 
CN1CCC[C@H]1Cn1cc(C(=O)NCC2(O)CCC(F)(F)CC2)c2c(Cl)cccc21 [Compound 169, (S)-4-chloro-N-((4,4-difluoro-1-hydroxycyclohexyl)methyl)-1-((1-methylpyrrolidin-2-yl)methyl)-1H-indole-3-carboxamide] | 10 to 100 nM | 10 to 100 nM |  | 
O=C(NC[C@@H]1CCCC(F)(F)C1)c1cn(C2COC2)c2cccc(Cl)c12 [Compound 66, 4-chloro-N—(((R)-3,3-difluorocyclohexyl)methyl)-1-(oxetan-3-yl)-1H-indole-3-carboxamide] | 10 to 100 nM | 101 to 500 nM |  | 
NCCn1cc(C(=O)NCC2CCC(F)(F)CC2)c2c(Cl)cccc21 [Compound 6, 1-(2-aminoethyl)-4-chloro-N-((4,4-difluorocyclo-hexyl)methyl)-1H-indole-3-carboxamide] | 101 to 500 nM | 10 to 100 nM |  | 
CC1(Cn2cc(C(=O)NCC3CCC(F)(F)CC3)c3c(Cl)cccc32)CCN1 (centres unmarked) [Compound 152, 4-chloro-N-((4,4-difluorocyclohexyl)methyl)-1-((2-methylazetidin-2-yl)methyl)-1H-indole-3-carboxamide] | 10 to 100 nM | 500 to 999 nM |  | 
